According to ChEMBL document CHEMBL5308504, “Tm Shift (DSF) assay results for EUbOPEN Chemogenomics Library” (2023):
“And” between values parts separate entries of the source, which are not always exact repeats. Identical values can stand only once.

What was measured:
Peregrin (Homo sapiens) = target: T1, Peregrin (Homo sapiens) (UniProt P55201); details: Compound concentration 20.0 uM, Protein concentration 2.0 uM, Result type QC Liability
T1 sequence (whole entry): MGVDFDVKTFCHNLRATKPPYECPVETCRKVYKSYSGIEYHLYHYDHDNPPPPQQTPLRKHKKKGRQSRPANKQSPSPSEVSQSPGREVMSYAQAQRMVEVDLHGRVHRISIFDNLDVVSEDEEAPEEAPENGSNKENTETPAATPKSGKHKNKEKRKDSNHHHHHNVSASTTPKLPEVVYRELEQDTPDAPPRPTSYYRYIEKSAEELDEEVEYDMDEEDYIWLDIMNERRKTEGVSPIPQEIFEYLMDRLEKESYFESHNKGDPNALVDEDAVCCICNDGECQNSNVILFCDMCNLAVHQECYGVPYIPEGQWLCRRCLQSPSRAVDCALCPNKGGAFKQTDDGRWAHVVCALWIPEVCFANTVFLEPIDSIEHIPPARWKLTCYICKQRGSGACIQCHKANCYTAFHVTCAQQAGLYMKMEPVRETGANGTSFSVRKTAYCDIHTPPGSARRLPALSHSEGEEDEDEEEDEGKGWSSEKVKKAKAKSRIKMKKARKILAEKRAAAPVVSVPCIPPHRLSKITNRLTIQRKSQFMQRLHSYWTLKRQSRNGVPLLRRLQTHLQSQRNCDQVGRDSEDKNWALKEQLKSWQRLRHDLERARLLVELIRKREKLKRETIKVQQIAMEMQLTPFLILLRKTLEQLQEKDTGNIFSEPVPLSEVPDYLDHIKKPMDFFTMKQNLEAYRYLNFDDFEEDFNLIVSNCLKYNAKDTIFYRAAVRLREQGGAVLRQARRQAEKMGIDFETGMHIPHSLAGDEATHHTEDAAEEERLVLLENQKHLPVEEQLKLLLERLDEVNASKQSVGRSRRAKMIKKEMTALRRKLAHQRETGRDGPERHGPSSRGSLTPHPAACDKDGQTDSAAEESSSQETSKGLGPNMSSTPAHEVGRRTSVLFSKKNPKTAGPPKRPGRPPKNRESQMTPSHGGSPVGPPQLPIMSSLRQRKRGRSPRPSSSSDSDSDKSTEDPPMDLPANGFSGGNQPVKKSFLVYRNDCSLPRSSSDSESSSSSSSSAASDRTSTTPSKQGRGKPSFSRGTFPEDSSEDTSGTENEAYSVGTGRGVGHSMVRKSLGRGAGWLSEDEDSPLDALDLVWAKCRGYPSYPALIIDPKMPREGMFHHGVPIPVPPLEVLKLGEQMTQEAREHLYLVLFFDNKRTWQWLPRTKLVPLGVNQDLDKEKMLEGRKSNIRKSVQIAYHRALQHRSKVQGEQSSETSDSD

[1] = target: Fibroblast growth factor receptor 3 (Homo sapiens) (UniProt P22607); details: Compound concentration 20.0 uM, Protein concentration 2.0 uM, Result type QC Liability
Sequence of Fibroblast growth factor receptor 3 (Homo sapiens) (P22607 23-806 limits assumed): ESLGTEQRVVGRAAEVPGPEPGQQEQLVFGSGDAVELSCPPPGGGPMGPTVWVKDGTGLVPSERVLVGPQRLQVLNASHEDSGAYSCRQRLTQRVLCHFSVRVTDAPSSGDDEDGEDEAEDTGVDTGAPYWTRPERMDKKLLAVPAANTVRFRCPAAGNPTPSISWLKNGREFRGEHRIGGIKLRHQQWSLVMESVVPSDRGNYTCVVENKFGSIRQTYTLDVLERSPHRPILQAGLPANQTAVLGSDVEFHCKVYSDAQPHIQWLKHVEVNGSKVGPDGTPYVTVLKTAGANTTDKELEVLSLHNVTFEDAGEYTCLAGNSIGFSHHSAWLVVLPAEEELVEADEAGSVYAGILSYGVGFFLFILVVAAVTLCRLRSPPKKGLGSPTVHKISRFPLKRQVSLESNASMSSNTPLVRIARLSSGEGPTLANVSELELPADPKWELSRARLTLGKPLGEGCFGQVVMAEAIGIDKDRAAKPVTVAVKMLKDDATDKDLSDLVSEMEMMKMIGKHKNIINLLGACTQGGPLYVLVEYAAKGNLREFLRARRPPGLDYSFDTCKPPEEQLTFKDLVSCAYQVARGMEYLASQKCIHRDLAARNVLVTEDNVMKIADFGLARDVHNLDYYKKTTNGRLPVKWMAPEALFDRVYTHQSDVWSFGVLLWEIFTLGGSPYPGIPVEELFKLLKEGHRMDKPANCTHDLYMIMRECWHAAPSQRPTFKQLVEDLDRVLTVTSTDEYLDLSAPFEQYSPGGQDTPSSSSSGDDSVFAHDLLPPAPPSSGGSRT
Description: Thermal Shift Assay. Domain: start/stop: P449-E759

Compound	ΔTm (Peregrin (Homo sapiens))	ΔTm [1]
CCc1nc(-c2cccc(C)c2)c(-c2ccnc(NC(=O)c3ccccc3)c2)s1	-2.72 °C	-0.84 °C
CC1(C)Cc2nc(C3CCCC3)c([C@@H](F)c3ccc(C(F)(F)F)cc3)c(C3CCCCC3)c2[C@@H](O)C1	-1.29 °C	1.5 °C
Fc1cccc(-n2cnc3c(NCc4nc5c(F)c(F)ccc5[nH]4)nc(N4CCOCC4)nc32)c1	-0.08 °C	-0.16 °C
COCc1nc2cnc3cc(-c4c(C)noc4C)c(OC[C@H]4CCNC4)cc3c2n1[C@H](C)c1ccccc1	-1.65 °C	0.6 °C
CS(C)(=O)=Nc1ccc(-c2ccc(-c3nc4[nH]c(O[C@@H]5CO[C@H]6[C@@H]5OC[C@H]6O)nc4cc3Cl)cc2)cc1	-3.2 °C	0.49 °C
Cc1ccc2c(NS(=O)(=O)c3ccccc3Cl)cccc2c1Oc1ncccc1-c1ccnc(N[C@H]2CCCNC2)n1	-3.81 °C	0.02 °C
C[C@@H]1C[C@H](C)CN(c2ncc(Cl)c(Nc3ccc4c(c3)cc(OC(C)(C)C(=O)O)c(=O)n4C)n2)C1	-3.96 °C	0.41 °C
CCc1cnn2c(NCc3ccc[n+]([O-])c3)cc(N3CCCCC3CCO)nc12 (stereo not given)	-1.7 °C	1.49 °C
CCOC(=O)N1CCC(CN(Cc2ccc(Cl)cc2)Cc2ccc([N+](=O)[O-])s2)C1 (stereo not given)	-2.07 °C	0.35 °C
Cc1nc2ccccc2c(-c2ccc3c4c(ccnc24)CCO3)c1[C@H](OC(C)(C)C)C(=O)O	-2.17 °C	0.36 °C
CSc1ccc(C[C@@H](C)C(=O)O)cc1Nc1nc(N2CC[C@H](N(C)C)C2)cc(C(F)F)c1C#N	-2.68 °C	0.35 °C
Cc1nnc2n1-c1sc3c(c1C(c1ccccc1Cl)=NC2)C[C@@H](C(=O)N1CCOCC1)C3	-1.96 °C	0.58 °C
CCC(=O)N[C@@H]1CC[C@H](C(=O)N(C)c2ccc(-c3nc4ccccc4o3)cc2)C1	-1.58 °C	0.71 °C
C[C@H](CCC(=O)O)[C@H]1CC[C@H]2[C@@H]3[C@@H](O)C[C@@H]4C[C@H](O)CC[C@]4(C)[C@H]3CC[C@]12C	-1.31 °C	0.96 °C
O=C(Nc1snnc1C(=O)Nc1ccc(N2CCCC2)cc1)c1cncc(C(F)(F)F)c1	0.2 °C	0.45 °C
CCS(=O)(=O)c1cc2cc(C[C@](O)(CC(C)(C)c3ccc(F)cc3C(N)=O)C(F)(F)F)[nH]c2cn1	-1.64 °C	0.43 °C
O=C(Nc1ccc(N2CCC(C(=O)N3CCOCC3)CC2)cc1)c1cnc(Oc2ccccc2)nc1	-2.41 °C	0.5 °C
CN1C(=O)c2ccccc2N(C)c2nc(Nc3cnn(C4CCNCC4)c3)ncc21	-0.9 °C	6.58 °C
CS(=O)(=O)NCC[C@H](NC(=O)c1cncc2c1cnn2-c1ccc(F)cc1)c1ccnc(S(C)(=O)=O)c1	-1.91 °C	0.62 °C
O=C(Nc1ccnc(NC(=O)C2CC2)c1)c1c(Cl)cccc1Cl	-1.28 °C	3.21 °C

Compound	ΔTm (Peregrin (Homo sapiens))	ΔTm [1]
COCc1c(-c2cc3cc(C)cc(OC)c3s2)c2c(N)ncnn2c1CN[C@@H]1CCNC1=O	-2.51 °C	6.99 °C
COc1c(-c2cn(C3CCC(=O)NC3=O)nn2)csc1C(=O)N1CCCC1 (stereo not given)	-1.52 °C	0.59 °C
N[C@@H]1CCCN(c2c(/C=C3\SC(=O)NC3=O)cccc2-c2ccccc2)C1	-2.04 °C	0.95 °C
C[C@H](CCC(=O)O)[C@H]1CC[C@H]2[C@@H]3[C@H](O)C[C@@H]4C[C@H](O)CC[C@]4(C)[C@H]3C[C@H](O)[C@]12C	-2.19 °C	0.75 °C
COCCOCn1c(S(C)(=O)=O)nc2c1c(=O)n(C)c(=O)n2C	-2.72 °C	0.45 °C
Cc1nn(-c2nc3ccc(Cl)c(Cl)c3[nH]2)c(O)c1C1OC(=O)c2ccccc21 (stereo not given)	-3.79 °C	0.7 °C
COc1cc(CN(CCN)C(=O)N[C@@H](C)c2ccccc2)ccc1OCc1ccccc1	-2.05 °C	0.47 °C
Cc1cc(Cn2c(N3CC4(CNC4)C3)nc3c(N4CCN(C)CC4)cc(Cl)cc32)cc(C)c1F	-3.49 °C	0.86 °C
O=C1Nc2ccc(C(=O)c3ccco3)cc2C1=Cc1cc(Cl)c(O)c(Cl)c1	0.59 °C	2.35 °C
CCC(C)(C)CC[C@H](NC(=O)N1CCOCC1)C(=O)NC1(C#N)CCN(C)CC1	-3.19 °C	0.71 °C
CSc1nc2c(c(=O)n(C)c(=O)n2C)n1C	-2.2 °C	0.45 °C
CCOc1ccc(S(=O)(=O)Nc2ccc(Cl)cc2C#Cc2cnc(C(=O)O)cc2OC)c2ncccc12	-1.33 °C	-5.78 °C
O=C(O)CCCCN(CCc1cc(F)ccc1OCc1ccc(-c2ccc(C(F)(F)F)cc2)cc1)Cc1ccc(C(=O)O)cc1	-3.03 °C	-0.36 °C
Clc1ccccc1C(c1ccccc1)(c1ccccc1)n1ccnc1	-5.05 °C	0.47 °C
Cc1c(N2CCCC2)nc2ccc(Br)cc2c1C(=O)NC[C@H](CCC(=O)O)c1ccccc1Cl	-3.23 °C and -0.94 °C	0.24 °C and 1.08 °C
CNC(=O)c1ccc2c(c1)NC(=O)/C2=C(\Nc1ccc(CN2CCCCC2)cc1)c1ccccc1	-0.66 °C	3.97 °C
COc1cc(N[C@@H]2CCCC[C@]2(O)C(F)(F)F)ccc1F	-1.55 °C	0.65 °C
CC(=O)N1CCN([C@H]2CCC[C@@H](NC(=O)c3cc4c(F)ccc(C)c4[nH]3)C2)CC1	-1.84 °C	0.6 °C
CCOC(=O)c1cc2cc(-c3cc(C(=O)NCc4ccc(C(=O)O)cc4)nn3C)ccc2[nH]1	-3.42 °C	0.83 °C
CP(C)(=O)c1ccc(CNC(=O)C2CCN(S(=O)(=O)c3cc(Cl)cc(Cl)c3)CC2)cc1	-3.29 °C	0.53 °C

Compound	ΔTm (Peregrin (Homo sapiens))	ΔTm [1]
COc1ccc(N(C(=O)Nc2c(C)cccc2C)c2cc(Nc3ccc(N4CCN(C)CC4)cc3)ncn2)c(OC)c1	-3.64 °C	8.93 °C
CCCN1CCC(C#N)(NC(=O)[C@H](CC(C)(C)C)NC(=O)N2CCOCC2)CC1	-2.18 °C	0.37 °C
CCc1nc(-c2cccc(C)c2)c(-c2ccncc2)s1	-0.75 °C	0.65 °C
CCCCC[C@@](C)(O)/C=C/[C@H]1C(=O)CC(O)C1C/C=C\CCCC(=O)O (stereo not given in full)	-1.97 °C	0.37 °C
CC(C)(C#Cc1ccc(NC(=O)COc2ccccc2C(=O)c2ccccc2)c(Cl)c1)C(=O)O	-4.06 °C	0.52 °C
Cc1nsc(Nc2cnc(C(F)(F)F)cn2)c1C(=O)Nc1ccc(O[C@H]2CCCN(CC(F)(F)F)C2)nc1	-3.38 °C	1.39 °C
COc1nc2ccc([C@@](O)(c3ccc(Cl)cc3)c3cncn3C)cc2c(Cl)c1Cc1ccc(-n2cccn2)cc1	-1.33 °C	-1.77 °C
O=C(O)CCCCCC[C@@H]1C(=O)NC(=O)N1CCC(O)C1CCCCC1 (stereo not given in full)	-2.88 °C	0.47 °C
COc1ccc(CC[C@@H](OC(=O)[C@H]2CCCCN2C(=O)[C@@H](c2cc(OC)c(OC)c(OC)c2)C2CCCCC2)c2cccc(OCCN3CCOCC3)c2)cc1OC	-4.81 °C	-3.96 °C
O=C(CNC(=O)c1ccc(-c2ccccc2)cc1)NC1CCCc2ccccc21 (stereo not given)	-4.59 °C	0.59 °C
NC1(c2ccc(-c3nc4c(O)ccnn4c3-c3ccccc3)cc2)CCC1	0.22 °C	0.79 °C
Cn1c(C(=O)N[C@@H](CO)c2ccc(C(=O)O)cc2)cc2cc(Cl)ccc21	-2.2 °C	0.81 °C
CCN(C)C(=O)c1ccc2c(c1)NC(=O)/C2=C(\NC1CCN(C)CC1)c1ccccc1	-1.76 °C	0.47 °C
CN(C)C(=O)c1sc2nc(N3CCC(S(C)(=O)=O)CC3)cc(C(F)(F)F)c2c1N	-2.57 °C and -1.49 °C	0.65 °C and 1.05 °C
COc1ccc(CC[C@@H](OC(=O)[C@@H]2CCCCN2C(=O)[C@H](c2cc(OC)c(OC)c(OC)c2)C2CCCCC2)c2cccc(OCCN3CCOCC3)c2)cc1OC	-5.77 °C	-3.93 °C
CO[C@H](C)CN1CC[C@@]2(C)c3ccc(O)cc3C[C@@H]1C2(C)C	-2.03 °C	0.41 °C
Cc1nn(-c2ccccc2)c(Nc2ccccc2C(=O)O)c1-c1cc2nccnc2c(F)c1F	-2.93 °C	1.95 °C
O=C(Nc1ccc(C(O)(C(F)(F)F)C(F)(F)F)cc1)c1ccc(C(F)(F)F)cc1	0.72 °C	2.93 °C
CNC(=O)COc1cc2cc(Nc3nc(N4C[C@H](C)C[C@H](C)C4)ncc3Cl)ccc2n(C)c1=O	-2.08 °C	0.62 °C
CNc1nc(Nc2ccc(C(=O)N3CCOCC3)cc2OC)ncc1Cl	-1.86 °C	0.95 °C
